From US9872493B2, “Method for promoting plant growth” (SUMITOMO CHEMICAL COMPANY, LIMITED, priority 2012, dated 2018)

Columns and labels:
[1] = test system: Rice (Variety: Nipponbare); test: Test for evaluating promotion of root growth by hydroponics of rice (Test Examples 1-3); format: in vivo
Procedure: Rice (Variety: Nipponbare)
(§1) A DMSO solution, which contained one of the compounds 14, 18, 21, 23, 26, 28, 29, 30, 35, 36, 37, 39 and 40 of the present invention at a concentration of 100,000 ppm, was added to Hoagland hydroponic solution (Hoagland and Arnon, California Agricultural Experiment Station 1950 Circular 347 pp. 34) of ¼-fold concentration at a volume ratio of 1/10,000. In this manner, hydroponic solutions containing one of the compounds 14, 18, 21, 23, 26, 28, 29, 30, 35, 36, 37, 39 and 40 of the present invention at 10 ppm were prepared respectively. As an untreated control plot, a hydroponic solution obtained by adding DMSO to Hoagland hydroponic solution of ¼-fold concentration at a volume ratio of 1/10,000 was used.
(§2) Rice seeds were soaked in a 1% aqueous sodium hypochlorite solution for 10 minutes, then soaked in a 70% ethanol solution for surface sterilization, and then washed with distilled water. The sterilized seeds were soaked in a hydroponic solution containing the test compound described above at 10 ppm and incubated in a dark place for 3 days at 28° C. to perform treatment for hastening germination.
(§3) Thereafter, 30 ml of hydroponic solution containing the test compound at 10 ppm was dispensed in a plastic tube (diameter of 20 mm×height of 113 mm) of which the side was covered with cardboard to block light. A float prepared using a styrene board and vinyl mesh was floated, and the rice seeds that had undergone the treatment for hastening germination were placed on the float on the surface of the hydroponic solution. The seeds were cultivated for 3 days at 26° C., an illuminance of 4,000 lux of the top surface of the tube, a humidity of 50%, and a day length of 16 hours.
The nursery plants of rice obtained after cultivating were measured in terms of the length of seminal root by using WinRHIZO system (manufactured by Regent Instruments Inc). For each test plot, an average of the measured values of the seminal root of 4 or 5 individuals were determined.
as §1, with “compounds 7, 8, 9, 10, 12, 17, 20,” for “compounds 14, 18,”, “21, 25, 27,” for “21, 23, 26,”, “30, 34,” for “30,”, “37, 38,” for “37,”, “of 10,000” for “of 100,000”, “at 1” for “at 10”
as §2, with “at 1” for “at 10”
as §3, with “1” for “10”
The nursery plants of rice obtained after cultivation were measured in terms of the length of seminal root by using WinRHIZO system (manufactured by Regent Instruments Inc). […]

Nicotiana benthamiana = test: Test for evaluating growth promotion under low-temperature stress by hydroponics of Nicotiana benthamiana (Test Examples 4-6); format: in vivo; conditions: compound at 10 ppm, 7 days at 1.5±1.0° C. low-temperature stress, then 3 days at 22° C., green leaf area vs untreated control, read-out: value of a relative leaf area (equation (1))
Procedure: A DMSO solution, which contained one of the compounds 5, 14, 22, 23, 24, 25, 26, 28, 30, 31, 32, 33, 34, 35, 38, 39 and 40 of the present invention at a concentration of 10,000 ppm, was prepared. The DMSO solution of the compound of the present invention was added at a volume ratio of 1/1,000 to the Murashige•Scoog medium of a ½-fold concentration (a medium containing 2.3 g of mixed salts (manufactured by Wako Pure Chemical Industries, Ltd.), 200 mg of Myo-inositol (manufactured by Sigma-Aldrich Co. LLC.), 2 mg of nicotinic acid (manufactured by Wako Pure Chemical Industries, Ltd.), 2 mg of pyridoxine hydrochloride (manufactured by Wako Pure Chemical Industries, Ltd.), 20 mg of thiamine hydrochloride (manufactured by Wako Pure Chemical Industries, Ltd.), 20 g of sucrose (manufactured by Wako Pure Chemical Industries, Ltd.), and 1 g of MES (manufactured by DOJINDO LABORATORIES) per 1 L of water and having pH adjusted to 5.8), thereby preparing a medium containing the compound of the present invention at a concentration of 10 ppm.
Seeds of Nicotiana benthamiana were seeded in the 5 μL of the medium and cultured overnight at 22° C. Thereafter, 45 μL of the medium containing the compound of the present invention at a concentration of 10 ppm was added thereto, and the seeds are cultivated for 7 days at 22° C., an illuminance of 4,000 lux, and a day length of 16 hours, thereby the nursery plants raised from the Nicotiana benthamiana were treated with the compound.
Moreover, instead of the above medium a test plot, which was obtained by performing the same treatment by using a medium prepared by adding DMSO to the Murashige•Scoog medium of ½-fold concentration at a volume ratio of 1/1,000, was used as a control plot not treated with the compound.
The nursery plants of the Nicotiana benthamiana treated with the compound were subjected to low-temperature treatment by being cultivated for 7 days at 1.5±1.0° C., an illuminance of 2,000 lux, and a day length of 16 hours.
The nursery plants of the Nicotiana benthamiana having undergone the low-temperature stress treatment were cultivated for 3 days at 22° C., an illuminance of 4,000 lux, and a day length of 16 hours. Thereafter, the area of green leaf was quantified by Scanalyzer HTS (manufactured by LemnaTec GmbH). Moreover, the value of the control plot not treated with the compound that had not yet been subjected to the low-temperature stress treatment was measured in the same manner. A value of a relative leaf area was calculated based on the following equation (1), and if the value of a relative leaf area was 5 or greater, the compound was evaluated to have a mitigating effect. As a result of the evaluation, it was confirmed that when the plant was treated with one of the compounds 5, 14, 22, 23, 24, 25, 26, 28, 30, 31, 32, 33, 34, 35, 38, 39 and 40 of the present invention at 10 ppm, the value of a relative leaf area was 5 or greater, compared to the area of green leaf of the control plot not treated with compound. Accordingly, it was confirmed that the treatment using the compound of the present invention brings about a growth promotion effect. Relative leaf area=100*(a green area of a plot treated with the compound of the present invention−a green area of a control plot not treated with the compound of the present invention)/(a green area of a control plot not treated with the compound of the present invention that has not yet been subjected to low-temperature stress treatment−a green area of a control plot not treated with the compound of the present invention) Equation (1): […]
A DMSO solution, which contained one of the compounds 6, 7, 8, 11, 12, 15, 19, 23, 24, 25, 28, 30, 31, 33, 34, 36, 37, 38 and 39 of the present invention at a concentration of 1,000 ppm, was prepared. […]

Structure (SMILES): O=C(NCc1ccccc1)c1csc2c(C(F)(F)F)cccc12 [Compound 40]
- length of seminal root compared with the untreated control plot (in words) ([1]; 1 ppm): obviously longer
- length of seminal root compared with the untreated control plot (in words) ([1]; 10 ppm): obviously longer
- relative green leaf area after low-temperature stress at 10 ppm (Nicotiana benthamiana): ≥ 5%
